We go through 22 compounds from patent US20190367516A1 (Bayer Pharma Aktiengesellschaft, priority 2015, published 2019).

The assay addresses T1, human M2 receptor (Homo sapiens, UniProt P08172).
T1 sequence (P08172 1-466): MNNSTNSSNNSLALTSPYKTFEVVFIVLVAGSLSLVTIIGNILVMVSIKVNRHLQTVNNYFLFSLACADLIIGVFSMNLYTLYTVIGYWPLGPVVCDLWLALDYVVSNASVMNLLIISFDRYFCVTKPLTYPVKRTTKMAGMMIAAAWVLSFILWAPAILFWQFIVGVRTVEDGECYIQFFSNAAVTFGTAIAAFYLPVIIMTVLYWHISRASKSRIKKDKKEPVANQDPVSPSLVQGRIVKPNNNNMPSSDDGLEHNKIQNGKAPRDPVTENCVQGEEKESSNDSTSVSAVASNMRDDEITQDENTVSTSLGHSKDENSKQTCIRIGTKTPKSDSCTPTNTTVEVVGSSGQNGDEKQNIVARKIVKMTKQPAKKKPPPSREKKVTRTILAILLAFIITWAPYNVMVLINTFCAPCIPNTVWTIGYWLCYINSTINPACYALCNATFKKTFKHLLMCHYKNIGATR
To be noted: M2-GIRK1/4 reporter cells; for EC50: Receptor activity EC50, allosteric potency at EC20 acetylcholine, in some cases mean of two or more determinations; for Emax: read-out: Efficiency, boosting of the acetylcholine effect at EC20 acetylcholine concentration.

One may read the EC50 as the concentration giving half of the maximal effect. In the case of `CC(C)[C@@H](C)NC(=O)c1cn(-c2c(F)cc(F)cc2F)c2nc(N3C[C@@H](O)CC3=O)ccc2c1=O` [Example 473, 7-[(4S)-4-Hydroxy-2-oxopyrrolidin-1-yl]-N-[(2R)-3-methylbutan-2-yl]-4-oxo-1-(2,4,6-trifluorophenyl)-1,4-dihydro-1,8-naphthyridine-3-carboxamide], the response was half-maximal at 31 nM (EC50) and the Emax was found to be 100%.

`C[C@H](NC(=O)c1cn(-c2c(F)cc(F)cc2F)c2nc(N3C[C@@H](O)[C@H](O)C3)ccc2c1=O)C1CC1` [Example 477, N-[(1 S)-1-Cyclopropylethyl]-7-[(3R,4R)-3,4-dihydroxypyrrolidin-1-yl]-4-oxo-1-(2,4,6-trifluorophenyl)-1,4-dihydro-1,8-naphthyridine-3-carboxamide]: the EC50 was 73 nM and the Emax was determined as 89%.

As to `C[C@H](NC(=O)c1cn(-c2c(F)cc(F)cc2F)c2nc(N3C[C@@H](O)CC3=O)ccc2c1=O)C1CC1` [Example 478, N-[(1 S)-1-Cyclopropylethyl]-7-[(4S)-4-hydroxy-2-oxopyrrolidin-1-yl]-4-oxo-1-(2,4,6-trifluorophenyl)-1,4-dihydro-1,8-naphthyridine-3-carboxamide], a half-maximal effect (EC50) was put at 24 nM and the Emax stood at 100%.

In the case of `CC(C)(C)NC(=O)c1cn(-c2c(F)cc(F)cc2F)c2nc(N3C[C@@H](O)[C@H](O)C3)ccc2c1=O` [Example 479, N-tert-Butyl-7-[(3R,4R)-3,4-dihydroxypyrrolidin-1-yl]-4-oxo-1-(2,4,6-trifluorophenyl)-1,4-dihydro-1,8-naphthyridine-3-carboxamide], a half-maximal response (EC50) required 38 nM and the Emax worked out at 100%.

On to `C[C@@H](NC(=O)c1cn(-c2c(F)cc(F)cc2F)c2nc(N3C[C@@H](O)CC3=O)ccc2c1=O)C1CC1` [Example 480, N-[(1R)-1-Cyclopropylethyl]-7-[(4S)-4-hydroxy-2-oxopyrrolidin-1-yl]-4-oxo-1-(2,4,6-trifluorophenyl)-1,4-dihydro-1,8-naphthyridine-3-carboxamide], for which the response was half-maximal at 46 nM (EC50) and the Emax came out at 100%.

For the compound `CC(C)(NC(=O)c1cn(-c2c(F)cc(F)cc2F)c2nc(N3C[C@@H](O)CC3=O)ccc2c1=O)C1CC1` [Example 481, N-(2-Cyclopropylpropan-2-yl)-7-[(4S)-4-hydroxy-2-oxopyrrolidin-1-yl]-4-oxo-1-(2,4,6-trifluorophenyl)-1,4-dihydro-1,8-naphthyridine-3-carboxamide], the EC50 turned out to be 10 nM and the Emax is 100%.

For `CC(C)[C@@H](C)NC(=O)c1cn(-c2c(F)cc(F)cc2F)c2nc(N3C[C@@H](O)[C@H](O)C3)ccc2c1=O` [Example 483, 7-[(3R,4R)-3,4-Dihydroxypyrrolidin-1-yl]-N-[(2R)-3-methylbutan-2-yl]-4-oxo-1-(2,4,6-trifluorophenyl)-1,4-dihydro-1,8-naphthyridine-3-carboxamide], the 50% effective concentration (EC50) is 54 nM and the Emax amounted to 92.5%.

In the case of `CN1CCN(c2ccc3c(=O)c(C(=O)N[C@@H](C4CC4)C(F)(F)F)cn(-c4c(F)cc(F)cc4F)c3n2)CC1` [Example 490], it took 103 nM to reach a half-maximal effect (EC50) and the Emax worked out at 91.5%.

Consider `CN(C[C@H](O)CO)c1ccc2c(=O)c(C(=O)N[C@@H](C3CC3)C(F)(F)F)cn(-c3c(F)cc(F)cc3F)c2n1` [Example 491], for which it took 106 nM to reach a half-maximal effect (EC50) and the Emax is 85.5%.

On to `O=C(N[C@@H](C1CC1)C(F)(F)F)c1cn(-c2c(F)cc(F)cc2F)c2nc(N3CC4(COC4)C3)ccc2c1=O` [Example 492], for which the response was half-maximal at 44 nM (EC50) and the Emax amounted to 97.5%.

`CC[C@H](NC(=O)c1cn(-c2c(F)cc(F)cc2F)c2nc(N(C)C[C@@H](C)O)ccc2c1=O)C(F)(F)F` [Example 495]: the EC50 amounted to 31 nM and the Emax worked out at 99.5%.

Take `CC[C@H](NC(=O)c1cn(-c2c(F)cc(F)cc2F)c2nc(N3CCN(C)CC3)ccc2c1=O)C(F)(F)F` [Example 496]: it took 67 nM to reach a half-maximal effect (EC50) and the Emax was found to be 89%.

Turning to `CC[C@H](NC(=O)c1cn(-c2c(F)cc(F)cc2F)c2nc(N(C)C[C@H](C)O)ccc2c1=O)C(F)(F)F` [Example 497], the EC50 was determined as 29 nM and the Emax came out at 92%.

As to `CC[C@H](NC(=O)c1cn(-c2c(F)cc(F)cc2F)c2nc(N3CC4(COC4)C3)ccc2c1=O)C(F)(F)F` [Example 498], the 50% effective concentration (EC50) is 60 nM and the Emax is 83.5%.

Regarding `CC[C@H](NC(=O)c1cn(-c2c(F)cc(F)cc2F)c2nc(NC(C)(C)C)ccc2c1=O)C(F)(F)F` [Example 499], the half-maximal effective concentration (EC50) came to 63 nM and the Emax was found to be 96%.

In the case of `CC[C@H](NC(=O)c1cn(-c2c(F)cc(F)cc2F)c2nc(N3CCC(CO)(CO)CC3)ccc2c1=O)C(F)(F)F` [Example 500], the 50% effective concentration (EC50) was found to be 76 nM and the Emax worked out at 100%.

As for `CC[C@H](NC(=O)c1cn(-c2c(F)cc(F)cc2F)c2nc(N3CC(F)C3)ccc2c1=O)C(F)(F)F` [Example 501], the concentration for a half-maximal effect (EC50) is 58 nM and the Emax amounted to 98%.

`O=C(N[C@@H](C1CC1)C(F)(F)F)c1cn(-c2c(F)cc(F)cc2F)c2nc(N3CC(CO)(CO)C3)ccc2c1=O` [Example 502, 7-[3,3-Bis(hydroxymethyl)azetidin-1-yl]-N-[(1S)-1-cyclopropyl-2,2,2-trifluoroethyl]-4-oxo-1-(2,4,6-trifluorophenyl)-1,4-dihydro-1,8-naphthyridine-3-carboxamide]: the midpoint of the response, the EC50, lay at 30 nM and the Emax is 91%.

As for `CC[C@H](NC(=O)c1cn(-c2c(F)cc(F)cc2F)c2nc(N3C[C@@H](NC(C)=O)CC3=O)ccc2c1=O)C(F)(F)F` [Example 517, 7-[(4S)-4-Acetamido-2-oxopyrrolidin-1-yl]-4-oxo-N-[(2S)-1,1,1-trifluorobutan-2-yl]-1-(2,4,6-trifluorophenyl)-1,4-dihydro-1,8-naphthyridine-3-carboxamide], the EC50 amounted to 85 nM and the Emax is 88.5%.

Turning to `CC[C@H](NC(=O)c1cn(-c2c(F)cc(F)cc2F)c2nc(N3CC(CNC(C)=O)CC3=O)ccc2c1=O)C(F)(F)F` (stereo partly drawn) [Example 518, 7-[4-(Acetamidomethyl)-2-oxopyrrolidin-1-yl]-4-oxo-N-[(2S)-1,1,1-trifluorobutan-2-yl]-1-(2,4,6-trifluorophenyl)-1,4-dihydro-1,8-naphthyridine-3-carboxamide], the midpoint of the response, the EC50, lay at 470 nM and the Emax was determined as 99.5%.

For the compound `CC(C)C[C@H](NC(=O)c1cn(-c2c(F)cc(F)cc2F)c2nc(N3C[C@@H](O)CC3=O)ccc2c1=O)C(F)(F)F` [Example 525, 7-[(4S)-4-Hydroxy-2-oxopyrrolidin-1-yl]-oxo-N-[(2S)-1,1,1-trifluoro-4-methylpentan-2-yl]-1-(2,4,6-trifluorophenyl)-1,4-dihydro-1,8-naphthyridine-3-carboxamide], the EC50 was 5 nM and the Emax was found to be 100%.

In the case of `CC(C)C[C@@H](NC(=O)c1cn(-c2c(F)cc(F)cc2F)c2nc(N3C[C@@H](O)[C@H](O)C3)ccc2c1=O)C(F)(F)F` [Example 544, 7-[(3R,4R)-3,4-Dihydroxypyrrolidin-1-yl]-4-oxo-N-[(2R)-1,1,1-trifluoro-4-methylpentan-2-yl]-1-(2,4,6-trifluorophenyl)-1,4-dihydro-1,8-naphthyridine-3-carboxamide], the EC50 turned out to be 8 nM and the Emax came out at 98%.
